Tested on: HUVEC
Assay: HUVEC apoptosis/necrosis, annexin V and propidium iodide staining
Format: cell-based, human
Conditions: ATP 3 mM
Source text: It is possible that the inhibition of the ATP-dependent pathway can induce the shift to another metabolic activity, as the glycolysis. […] The block of the HUVEC proliferation is further evidenced by the absence of cell apoptosis due to the treatment of the cells with the tested compounds, as reported in the FIG. 9 (the results are representative of 5 experiments). Only the treatment with ATP was able to induce about 4.5% PI positive, e.g. necrotic cells.
In the second series of experiments, we studied the differences in the apoptosis induction on human promyelocytic leukemia HL60 cells by ATP and by the inhibitors of the P2X7 receptors. Apoptotic cells and necrotic cells were analyzed by staining the cells with annexin V and propidium iodide (PI) (BD Pharmingen apoptosis kit, San Diego, Calif.). Briefly, an aliquot of 10^5 cells was incubated with annexin V-fluorescein isothiocyanate (FITC) and PI for 15 minutes at room temperature in the dark. The cells were immediately analyzed by FACScalibur (Becton Dickinson, Heidelberg, Germany). The emission/excitation wavelengths were 530/488 nm for annexin V FITC (FL1) and 640 nm/488 nm for PI (FL2). The necrotic cells were annexin V- and PI-positive, whereas apoptotic cells were annexin V-positive and PI-negative. The percentage of cells stained in each quadrant was quantified using the cellQuest software (BD Bioscience, San Josew, Calif.). […]

Nc1ncnc2c1ncn2[C@@H]1O[C@H](COP(=O)(O)OP(=O)(O)OP(=O)(O)O)[C@@H](O)[C@H]1O [ATP]
PI positive, e.g. necrotic cells: about 4.5%

From patent US20100168050A1, “COMPOUNDS HAVING ANTIANGIOGENIC ACTIVITY” (MEDESTEA INTERNAZIONALE S.P.A, priority 2004, published 2010)
